Source: article PMC12239085, “Silver(I) Ions Bridging Oxadiazole-2-thione Derivatives with Mitochondriotropic Agents: A Promising Strategy for Potent Anticancer Chemotherapy” (Inorganic Chemistry, 2025)
“And” between values parts separate entries of the source, which are not always exact repeats. Identical values can stand only once. Like-named read-outs stand apart in the source and are kept apart here.

How the values were obtained:
[1] = tested on: MDA-MB-231 human breast adenocarcinoma cells (hormone-independent); assay: SRB antiproliferative assay, MDA-MB-231; assay type: cell-based; conditions: Homo sapiens, MDA-MB-231, 48 h incubation
Procedure: (§1) Stock solutions of compounds 1a–5a and 1–5 (0.01 M) in DMSO were freshly prepared and subsequently diluted with cell culture media to appropriate concentrations for various biological experiments. These included the assessment of cell viability using the SRB assay, micronucleus testing, cell morphology studies, cell cycle arrest, AO/EB staining, and mitochondrial membrane permeabilization tests. For CT-DNA binding studies, experiments were conducted in DMSO/buffer solutions. All biological experiments were performed in triplicate or more.
(§2) Stock solutions of 1a–5a and 1–5 (0.01 M) were dissolved in DMSO and subsequently diluted with cell culture medium to the desired concentrations (0.5–30 μM). MCF-7, MDA MB-231, and MRC-5 cells were plated in 96-well flat-bottom microplates at various densities: 6000, 8000, and 2000 cells per well, respectively. The cells were incubated for 24 h at 37 °C and then exposed to 1a–5a and 1–5 for 48 h. ,–
(§3) Cytotoxicity was evaluated using the SRB colorimetric assay at λ = 568 nm, with cell survival percentages calculated relative to the untreated control cells. Detailed information on the SRB assay procedure can be found in the previous publication. ,–

[2] = tested on: normal human fetal lung fibroblast (MRC-5) cells; assay: SRB toxicity assay, MRC-5; assay type: cell-based; conditions: Homo sapiens, MRC5, 48 h incubation
Procedure: as §1, §2, §3

[3] = tested on: MCF-7 human breast adenocarcinoma cells (hormone-dependent); assay: SRB antiproliferative assay, MCF-7; assay type: cell-based; conditions: for IC50: Homo sapiens, MCF7, SRB assay, 48 h incubation; for (%) cells viability: MCF-7 cells, ligands with IC50 higher than 30 μM
Procedure: as §1, §2, §3

[4] = tested on: MDA-MB-231 human breast adenocarcinoma cells (hormone-independent); set-up: method as in column not 'this study', ref number not given; conditions: 48 h incubation; ref not 'this study', ref number not given; cited from earlier work
[5] = tested on: normal human fetal lung fibroblast (MRC-5) cells; set-up: method as in column not 'this study', ref number not given; conditions: 48 h incubation; ref not 'this study', ref number not given; cited from earlier work
[6] = tested on: MCF-7 human breast adenocarcinoma cells (hormone-dependent); conditions: 48 h incubation; ref not 'this study', ref number not given; cited from earlier work
[7] = tested on: MCF-7 cells; set-up: method as in number not given; conditions: cisplatin comparison, ref number not given; cited from earlier work
[8] = tested on: MCF-7 cells; set-up: method as in number not given; conditions: cisplatin comparison; ref number not given; cited from earlier work
[9] = tested on: nontumorigenic human breast epithelial cell line (MCF-10A); set-up: method as in column not 'this study', ref number not given; conditions: 48 h incubation; ref not 'this study', ref number not given; cited from earlier work
[10] = tested on: MRC-5 cells; set-up: method as in number not given; conditions: cited from earlier work
[11] = tested on: MCF-7 cells; set-up: method as in number not given; conditions: cisplatin comparison; ref number not given; cited from earlier work; remark: listed apart in the source
[12] = biological target: T1, lipoxygenase (LOX) (Glycine max, UniProt P08170); conditions: cisplatin comparison; ref number not given; read-out: IC50 against LOX; cited from earlier work
T1 sequence (P08170 1-839): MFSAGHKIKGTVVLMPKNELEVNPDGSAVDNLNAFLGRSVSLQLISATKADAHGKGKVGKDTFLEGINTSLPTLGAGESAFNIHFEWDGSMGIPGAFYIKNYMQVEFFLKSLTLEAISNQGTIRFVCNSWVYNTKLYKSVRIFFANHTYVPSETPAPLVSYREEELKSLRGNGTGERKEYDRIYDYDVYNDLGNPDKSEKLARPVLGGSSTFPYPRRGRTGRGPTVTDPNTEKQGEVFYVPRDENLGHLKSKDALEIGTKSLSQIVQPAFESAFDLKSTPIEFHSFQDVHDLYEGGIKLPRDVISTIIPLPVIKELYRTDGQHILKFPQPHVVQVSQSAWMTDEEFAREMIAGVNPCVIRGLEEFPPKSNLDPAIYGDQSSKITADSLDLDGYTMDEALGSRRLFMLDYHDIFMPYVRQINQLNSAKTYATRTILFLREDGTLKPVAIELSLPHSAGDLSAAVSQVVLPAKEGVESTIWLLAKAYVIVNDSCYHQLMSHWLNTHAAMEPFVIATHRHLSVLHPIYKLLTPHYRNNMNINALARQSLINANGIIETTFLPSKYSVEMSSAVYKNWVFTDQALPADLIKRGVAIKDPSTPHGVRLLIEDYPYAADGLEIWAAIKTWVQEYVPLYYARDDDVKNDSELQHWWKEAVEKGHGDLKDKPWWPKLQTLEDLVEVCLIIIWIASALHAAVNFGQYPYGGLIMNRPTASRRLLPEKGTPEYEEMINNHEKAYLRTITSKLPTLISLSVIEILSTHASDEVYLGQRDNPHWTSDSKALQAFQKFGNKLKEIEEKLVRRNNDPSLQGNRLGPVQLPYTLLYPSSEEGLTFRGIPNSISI

| SMILES | IC50 [1] | IC50 [2] | IC50 [3] | (%) cells viability [3] | other results |
| --- | --- | --- | --- | --- | --- |
| S=c1[nH]nc(-c2ccccc2)o1 [1a] | > 30 µM | > 30 µM | > 30 µM | 84.7% | – |
| Fc1ccccc1-c1nnc(S)o1 [2a] | > 30 µM | > 30 µM | > 30 µM | 95.7% | – |
| Fc1ccc(-c2nnc(S)o2)cc1 [3a] | > 30 µM | > 30 µM | > 30 µM | 90.7% | – |
| Sc1nnc(-c2ccccc2Cl)o1 [4a] | > 30 µM | > 30 µM | > 30 µM | 80.3% | – |
| Sc1nnc(-c2cccc(Cl)c2)o1 [5a] | > 30 µM | > 30 µM | > 30 µM | 90.1% | – |
| c1ccc(P(c2ccccc2)c2ccccc2)cc1 [TPP, triphenylphosphine] | – | – | – | – | IC50 [4]: > 30 µM; IC50 [5]: > 30 µM; IC50 [6]: 28.9 ± 1.4 µM |
| N.N.[Cl][Pt][Cl] [cisplatin] | – | – | – | – | fluorescence quenching (MMP) [7]: 54.9%; IC50 [4]: 26.7 ± 1.1 µM; relative rate of apoptotic MCF-7 cells [8]: 5.88 and 5.9; IC50 [9]: 11 ± 3 µM; IC50 [5]: 1.1 ± 0.2 µM; Percentage of MN ([10]; control = 0.8, ref number not given): 1.6 (control = 0.8) %; Relative ratio of MN toward its control ([10]; ref number not given): 2.0; Relative rate of MCF-7 cells in sub-G1 phase [11]: 2.9; IC50 [6]: 5.5 ± 0.4 µM; IC50 [12]: 65.9 µM |
